Like-named read-outs stand apart in the source and are kept apart here.
Columns and labels:
Downy Mildew of Cucumber = assay: Microbicidal activity on cucumber seedlings, spray then spore inoculation (Embodiment 8); details: for pest or weed control at 500 µg/g: Cucumis sativus, read-out: Downy Mildew of Cucumber Average inhibition rate (%)
Description: (§1) (Pseudomonassyringaepv. tomato (Okabe) Young, Dye & Wilkie), Cucumber Angular Leaf Spot, Rice Sheath Blight Disease (Rhizoctonia solani), Corynespora Leaf Spot of Cucumber (Corynespora cassiicola), Downy Mildew of Cucumber (Cucumber Downy Mildew).
(§2) Testing agents and control agents were sprayed uniformly at A.M. of a sunshine day on the cucumber seminal leaves. After 2 hours, the leaves were inoculated with pathogenic microbes and cultured at humidity. […] Strip inoculation is used for Rice Sheath Blight Disease and phytophthora blight of pepper, in which the liquor was sprayed and after 2 hours, inoculation of strips was performed followed by culturing at humidity. After full occurrence of diseases in the control group, state of illness was examined according to grading standards, and a disease index and inhibition rate were calculated.

[1] = system: Rice Sheath Blight Disease; assay: Microbicidal activity, spray then strip inoculation (Embodiment 8); details: for pest or weed control at 500 µg/g: Oryza sativa, read-out: Rice Sheath Blight Disease Average inhibition rate (%)
Description: as §1, §2

[2] = system: Cucumber Angular Leaf Spot; assay: Microbicidal activity on cucumber seedlings, spray then inoculation (Embodiment 7); details: for Cucumber bacterial spot (%), controlling effect: testing concentration of 500 μg/g, cucumber seedling; for pest or weed control at 500 µg/g: Cucumis sativus, read-out: Cucumber bacterial spot (%), controlling effect
Description: Testing Materials: Strain: Cucumber Angular Leaf Spot
Testing method: a cucumber seedling at the stage of 2 seminal leaves was inoculated by spraying a suspension of Cucumber Angular Leaf Spot. Testing agents and control agents were sprayed uniformly on the seminal leaves at A.M. of a sunshine day respectively. After 2 hours, the leaves were inoculated with pathogenic microbes and cultured at humidity. After full occurrence of disease in control group, state of illness was examined according to grading standards, and the controlling effects were measured.

[3] = system: Cucumber Angular Leaf Spot; assay: Microbicidal activity on cucumber seedlings, spray then inoculation (Embodiment 8); details: for Cucumber Angular Leaf Spot Average inhibition rate (%): testing concentration of 500 μg/g; for pest or weed control at 500 µg/g: Cucumis sativus, read-out: Cucumber Angular Leaf Spot Average inhibition rate (%)
Description: as §1, §2

[4] = system: Corynespora Leaf Spot of Cucumber; assay: Microbicidal activity on cucumber seedlings, spray then spore inoculation (Embodiment 8); details: for pest or weed control at 500 µg/g: Corynespora, in Cucumis sativus, read-out: Corynespora Leaf Spot of Cucumber Average inhibition rate (%)
Description: as §1, §2

gray mold of cucumber = assay: Spawn growth rate on agar plates (Embodiment 9); assay type: cell-based, Botrytis cinerea; details: 48 h; for inhibition of growth at 12.5 µg/g: Concentration 12.5 μg/g; for inhibition of growth at 25 µg/g: Concentration 25 μg/g; for inhibition of growth at 50 µg/g: Concentration 50 μg/g
wheat scab = assay: microbe, parasite or virus in culture; assay type: cell-based, Gibberella zeae; details: for inhibition of growth at 100 µg/g: 48 h, read-out: Wheat scab Average inhibition rate (%); for Wheat scab (inhibition): Table 7
tobacco brown spot = assay: microbe, parasite or virus in culture; assay type: cell-based, Alternaria alternate (Fries) Keissler; details: 48 h, testing concentration of 100 μg/g; Table 4; read-out: Tobacco brown spot Average inhibition rate (%)
[5] = system: Rice Sheath Blight Disease (sheath and culm blight of rice); assay: Spawn growth rate on agar plates (Embodiment 9); assay type: cell-based, Rhizoctonia solani; details: 48 h; for inhibition of growth at 12.5 µg/g: Concentration 12.5 μg/g; for inhibition of growth at 25 µg/g: Concentration 25 μg/g; for inhibition of growth at 50 µg/g: Concentration 50 μg/g
early blight of tomato = assay: Spawn growth rate on agar plates (Embodiment 9); assay type: cell-based, Alternaria solania; details: for inhibition of growth at 100 µg/g: 48 h, testing concentration of 100 μg/g, Table 6; for Early blight of tomato (inhibition): Table 7
[6] = testing concentration of 500 μg/g
[7] = testing concentration of 100 μg/g, Table 4, read-out: Gray mold of cucumber Average inhibition rate (%)
[8] = testing concentration of 100 μg/g, Table 6, read-out: Sheath and culm blight of rice Average inhibition rate (%)
[9] = testing concentration of 100 μg/g, Table 6, read-out: Gray mold of cucumber Average inhibition rate (%)

Row | Compound | melting point | pest or weed control at 500 µg/g [1] | inhibition of growth at 100 µg/g (gray mold of cucumber; [7]) | inhibition of growth at 100 µg/g (wheat scab) | inhibition of growth at 12.5 µg/g ([5]; Table 8) | inhibition of growth at 25 µg/g ([5]; Table 8) | inhibition of growth at 50 µg/g ([5]; Table 8) | inhibition of growth at 100 µg/g [5, 8] | inhibition of growth at 100 µg/g (early blight of tomato) | inhibition of growth at 12.5 µg/g (gray mold of cucumber; Table 8) | inhibition of growth at 25 µg/g (gray mold of cucumber; Table 8) | inhibition of growth at 50 µg/g (gray mold of cucumber; Table 8) | inhibition of growth at 100 µg/g (gray mold of cucumber; [9]) | also measured
1 | Zhongshengmycin [reference compound] |  |  |  |  |  |  |  |  |  |  |  |  |  | Downy Mildew of Cucumber Average inhibition rate (%) (Downy Mildew of Cucumber; [6]): 40%; Rice Sheath Blight Disease Average inhibition rate (%) [1, 6]: 50%; Cucumber bacterial spot (%), controlling effect [2]: 70.69%; Cucumber Angular Leaf Spot Average inhibition rate (%) [3]: 70%; Corynespora Leaf Spot of Cucumber Average inhibition rate (%) [4, 6]: 50%
2 | Nc1nnc([S-])s1.Nc1nnc([S-])s1.[Cu+2] [Thiodiazole-copper, reference compound] |  |  |  |  |  |  |  |  |  |  |  |  |  | Cucumber bacterial spot (%), controlling effect [2]: 65.89%; Cucumber Angular Leaf Spot Average inhibition rate (%) [3]: 66%
3 | S=c1[nH]nc(NCNc2n[nH]c(=S)s2)s1 [Bismerthiazol, reference compound] |  |  |  |  |  |  |  |  |  |  |  |  |  | Cucumber bacterial spot (%), controlling effect [2]: 73.14%; Cucumber Angular Leaf Spot Average inhibition rate (%) [3]: 73%
4 | Cc1ncc(Cn2cc(COC(=O)c3ccccc3F)nn2)c(N)n1 [Compound 37] | 124 to 125 °C | 50% | 98% | 51% |  |  |  |  |  |  |  |  |  | pest or weed control at 500 µg/g [2]: 70%; pest or weed control at 500 µg/g [3]: 37%
5 | Cc1ncc(Cn2cc(COC(=O)c3ccccc3Cl)nn2)c(N)n1 [Compound 36] | 85 to 87 °C | 45% | 61% |  |  |  |  |  |  |  |  |  |  | pest or weed control at 500 µg/g [2]: 60%; pest or weed control at 500 µg/g [3]: 60%
6 | Cc1ncc(Cn2cc(COc3cccc(C)c3C)nn2)c(N)n1 [Compound 14] | 202 to 204 °C | 70% | 54% |  |  |  |  |  |  |  |  |  |  | pest or weed control at 500 µg/g (Downy Mildew of Cucumber): 35%; inhibition of growth at 100 µg/g (tobacco brown spot): 60%; pest or weed control at 500 µg/g [3]: 60%; pest or weed control at 500 µg/g [4]: 90%
7 | Cc1ncc(Cn2nnc(COc3ccc(Cl)cc3C)c2I)c(N)n1 [Compound 29] | 163 to 165 °C |  |  | 67% | 33% | 68% | 69% | 98% | 60% | 47% | 72% | 91% | 100% | inhibition of growth at 25 µg/g ([5]; Table 7): 64%; inhibition of growth at 50 µg/g ([5]; Table 7): 70%; inhibition of growth at 100 µg/g ([5]; Concentration 100 μg/g, Table 7, read-out: Sheath and culm blight of rice (inhibition)): 96%; Early blight of tomato (inhibition) (early blight of tomato; Concentration 25 μg/g): 0%; Early blight of tomato (inhibition) (early blight of tomato; Concentration 50 μg/g): 25%; Early blight of tomato (inhibition) (early blight of tomato; Concentration 100 μg/g): 41%; inhibition of growth at 25 µg/g (gray mold of cucumber; Table 7): 79%; inhibition of growth at 50 µg/g (gray mold of cucumber; Table 7): 90%; inhibition of growth at 100 µg/g (gray mold of cucumber; Concentration 100 μg/g, Table 7, read-out: Gray mold of cucumber (inhibition)): 100%; Wheat scab (inhibition) (wheat scab; Concentration 25 μg/g): 26%; Wheat scab (inhibition) (wheat scab; Concentration 50 μg/g): 45%; Wheat scab (inhibition) (wheat scab; Concentration 100 μg/g): 52%
8 | Cc1ccc(Cl)c(OCc2cn(Cc3cnc(C)nc3N)nn2)c1 [Compound 5] | 184 to 185 °C | 80% | 67% |  |  |  |  |  |  |  |  |  |  | pest or weed control at 500 µg/g (Downy Mildew of Cucumber): 70%; inhibition of growth at 100 µg/g (tobacco brown spot): 56%; pest or weed control at 500 µg/g [3]: 50%; pest or weed control at 500 µg/g [4]: 70%
9 | Cc1ncc(Cn2cc(COC(=O)c3ccc(F)cc3)nn2)c(N)n1 [Compound 34] | 198 to 199 °C | 40% | 63% | 51% |  |  |  |  |  |  |  |  |  | pest or weed control at 500 µg/g [2]: 60%
10 | COc1ccc(OCc2nnn(Cc3cnc(C)nc3N)c2I)cc1 [Compound 26] | 177 to 179 °C |  |  | 55% | 58% | 72% | 94% | 99% | 69% | 43% | 55% | 88% | 92% | 
11 | Cc1ncc(Cn2nnc(COc3ccccc3Cl)c2I)c(N)n1 [Compound 86] | 168 to 170 °C |  |  | 62% | 37% | 74% | 98% | 99% | 60% | 40% | 76% | 97% | 100% | 
12 | Cc1ncc(Cn2nnc(COc3ccc(F)cc3)c2I)c(N)n1 [Compound 82] | 160 to 162 °C |  |  | 48% | 63% | 90% | 100% | 96% | 70% | 56% | 97% | 99% | 96% | 
13 | Cc1ncc(Cn2cc(COc3ccc(C(=O)O)cc3)nn2)c(N)n1 [Compound 7] | > 260 °C | 70% | 67% |  |  |  |  |  |  |  |  |  |  | pest or weed control at 500 µg/g (Downy Mildew of Cucumber): 40%; inhibition of growth at 100 µg/g (tobacco brown spot): 57%; pest or weed control at 500 µg/g [3]: 55%; pest or weed control at 500 µg/g [4]: 70%
14 | Cc1ncc(Cn2cc(COC(=O)c3ccc(Cl)cc3)nn2)c(N)n1 [Compound 33] | 188 to 189 °C | 55% | 61% | 55% |  |  |  |  |  |  |  |  |  | pest or weed control at 500 µg/g [2]: 60%
15 | Cc1ncc(Cn2nnc(COc3ccc(C#N)cc3)c2I)c(N)n1 [Compound 31] | 199 to 201 °C |  |  | 58% | 78% | 88% | 96% | 97% | 70% | 75% | 87% | 91% | 95% | 
16 | Cc1ncc(Cn2nnc(COc3ccc(F)cc3Cl)c2I)c(N)n1 [Compound 27] | 187 to 189 °C |  |  | 39% | 0% | 37% | 72% | 94% | 38% | 59% | 66% | 92% | 99% | 
17 | Cc1ncc(Cn2nnc(COc3ccc([N+](=O)[O-])cc3)c2I)c(N)n1 [Compound 24] | 215 to 217 °C |  |  | 68% |  |  |  | 97% | 66% |  |  |  | 84% | 

From patent US8865724B2, “Preparation of 2-methyl-4-amino-5(substituted-1H-1,2,3-triazolyl)methylpyrimidine derivatives and microbicidal activity thereof” (Central China Normal University, priority 2011, dated 2014)
